Data published in patent publication US8541607B2, “Disulfide, sulfide, sulfoxide, and sulfone derivatives of cyclic sugars and uses thereof” (Lacer, S.A., priority 2003, dated 2013).

Tests used:
LDL = test: Inhibition of LDL oxidation induced by haemin and H2O2 (conjugated dienes, 234 nm); type: biochemical, human; conditions: compounds at 10 μM; 2.5 μM haemin and 5 μM H2O2; mean ± s.e.m.
From the text: The method used in the assays to determine the effect of the compounds on LDL oxidation is substantially the same as described in the following references: • Sprenger T., et al., Chem. Phys. Lipids 1998; 91:39-52 • Lynch S. M., et al., Biochim. Biophys. Acta 2000; 1485:11-22 • Pedreño J., et al., Thromb. Res. 2000; 99: 51-60.
The method used in the assays to isolate LDL particles from fresh human plasma is substantially the same as described in Pedreño J., et al., Atherosclerosis 2001; 155: 99-112.
Oxidative modification of low-density lipoprotein (LDL) is currently believed to be a central event it the development of atherosclerotic cardiovascular disease. The exposition of LDL to globin-free haemin (the complex of ferric ion (Fe^3+) with protoporphyrin IX), derived from the haemoglobin in circulating erythrocytes, serves as a physiological source of pro-oxidant Fe^3+ capable to promoting LDL oxidation. The compounds were added in vitro to determine their inhibitory activity on LDL oxidation induced by haemin and H2O2. LDL at a final protein concentration of 0.2 mg/ml was incubated in the presence of 2.5 μM haemin and 5 μM H202. Oxidative modification of LDL particles was assessed by measurement of conjugated dienes. Experimental samples were incubated at 37° C. and the increase in absorbance at 234 nm was automatically recorded every 5 min for at least 5 h. The effect of compounds on the LDL oxidation induced by haemin was tested at 7 different concentrations using LDL preparations from 7 different healthy donors.

[1] = test system: heparinized plasma (plasma lipoproteins); test: Inhibition of plasma oxidation induced by Cu2+ (absorbance 234 nm); type: biochemical; conditions: compounds at 10 μM; 50 μM CuSO4; mean ± s.e.m.
Description: The method used in the assays to determine the effect of compounds on the capacity of oxidation of the plasma is substantially the same as described in Spranger T. et al., Chem Phys Lipids 1998; 91: 39-52.
Lipoprotein oxidation induced in vitro in plasma is expected to represent a relevant model of the lipoprotein oxidation in the arterial wall. Oxidation of plasma lipoproteins was assessed as the capacity of oxidation of heparinized plasma and was measured by spectrophotometry as in increase in absorbance at 234 nm. The compounds were added in vitro to determine their inhibitory activity over the capacity of oxidation of plasma induced by Cu^2+ (CuSO4). Heparinized plasma was diluted with phosphate-buffered saline solution (PBS) containing 0.16 M NaCl, and the oxidation was started by 50 μM CuSO4. Experimental samples were incubated at 37° C. and the increase in absorbance at 234 nm was automatically recorded every 15 min for at least 12 h. The effect of compounds over the capacity of oxidation of plasma induced by Cu^2+ was tested at 7 different concentrations using heparinizaded plasma from 7 different healthy donors.

[2] = test system: Rats, left carotid artery thrombosis (FeCl3); test: In vivo antithrombotic effect, FeCl3 carotid artery thrombosis; parameters: species or system rat; conditions: single oral dose of 100 mg/Kg; no occlusion during 60 min after FeCl3 patch
Description: The method used is substantially the same as described by Kurz (Kurz K. D., et al., Thromb. Res. 1990, 60:269-280) and modified by Feuerstein (Feuerstein G. Z., et al., Artherioscler. Thromb. Vase. Biol. 1999, 19: 2554-25562).
Rats received a single oral dose of 100 mg/Kg of the compounds.
Forty-five minutes after dosing rats were anaesthetized with sodium pentobarbital (40 mg/kg, i.p.) and they were placed later dorsally on a heated (37° C.) surgical board.
The left carotid artery was isolated and a Parafilm 4 sheet (7×20 mm, American National Can) was placed under it. An electromagnetic sounding of flow (Transonic Systems Inc.) was placed on the artery to measure blood flow.
(§1) Sixty minutes after product administration, a paper patch saturated with FeCl3 solution (70%) was placed (and not removed for the whole duration of the experiment) on the left carotid artery downstream from the sounding of flow to initiate thrombosis. The blood flow was controlled during the 60 min later to the application of the patch in the artery.
The vessel was considered totally occluded by the thrombus formed when no blood flow was detected (0.0 ml/min). In this model, thrombus formation usually takes place within 15 to 20 minutes in non-treated animals.

[3] = test system: Rats, left carotid artery thrombosis (FeCl3); test: In vivo synergistic antithrombotic effect, FeCl3 carotid artery thrombosis, single drugs and combinations; parameters: species or system rat; conditions: Compound 12 22.3 mg/Kg, oral, acute the day of study
Description: The method used is substantially the same as described by Kurz (Kurz K. D., at al., Thromb. Res. 1990, 60: 269-280) and modified by Feuerstein (Feuerstein G. Z., et al., Artherioscler, Thromb. Vasc. Biol. 1999, 19: 2554-25562). […]
Forty-five minutes after dosing administration, rats were anaesthetized with sodium pentobarbital (40 mg/kg, i.p.) and they were placed later dorsally on a heated (37° C.) surgical board.
The left carotid artery was isolated and a Parafilm M sheet (7×20 mm, American National Can) was placed under it. An electromagnetic sounding of flow (Transonic Systems Inc.) was placed on the artery to measure blood flow.
as §1
The vessel was considered totally occluded by the thrombus formed when no blood flow was detected (0.0 ml/min). In this model, occlusive thrombus formation usually takes place within 15 to 20 minutes in non-treated animals.
The fractional product concept was used to identify synergy between the compounds. In accordance with this concept, if we consider the full protection of the animal as:
[formula] where A is the rate of animals with thrombotic occlusion in treated group; and B is the rate of animals with thrombotic occlusion in the control group.
For two drugs that act of independent way:
[formula] where A1 is the rate of animals with thrombotic occlusion in the treatment group A1; A2 is the rate of animals with thrombotic occlusion in the treatment group A2; and B is the rate of animals with thrombotic occlusion in the control group
If the protection obtained with the combination of the drugs is higher than the fractional inhibition for two compounds acting independently then synergism is considered to occur.
The results are shown in table 14 and are expressed as rate of animals with thrombotic occlusion in each group.

SMILES | % of increment of lag phase with respect to control (LDL oxidation) (LDL) [%] | % of increment of lag phase with respect to control (plasma oxidation) [1] [%] | % of animals fully protected [2] [%] | % of animals protected [3] | Rate of animals with thrombotic occlusion ([3]; control 1)
O=[N+]([O-])O[C@@H]1CO[C@H]2[C@@H]1OC[C@@H]2S [(1), 2-thioisosorbide 5-mononitrate] | 290 ± 8 | 245 ± 26 | 100 | – | –
CC(=O)S[C@H]1CO[C@H]2[C@@H]1OC[C@H]2O[N+](=O)[O-] [(12), 2-acetylthio-isosorbide-5-mononitrate] | 117 ± 56 | 200 ± 10 | 71 | (50%) | 0.5
